# Earlier results as cited in US20160361293A1, “NANOSTRUCTURED COMPOSITION COMPRISING INDOMETHACINE, ITS PHARMACEUTICALLY ACCEPTABLE SALTS AND CO-CRYSTALS AND PROCESS FOR THE PREPARATION THEREOF” (DARHOLDING KFT., priority 2014, published 2016).
# Columns and labels:
# [1] = in vivo
# [2] = not given; remark: listed apart in the source
smiles,measurement,setting,value
"COc1ccc2c(c1)c(CC(=O)O)c(C)n2C(=O)c1ccc(Cl)cc1 [Indomethacin, 1-(4-chlorobenzoyl)-5-methoxy-2-methyl-1H-indole-3-acetic acid]",mean half-life,[1],about 4.5 hours
same,stability in neutral or slightly acidic media,neutral or slightly acidic media,stable
same,stability in strong alkali,strong alkali,decomposes
same,solubility in alcohol,"[2]; alcohol, in words",sparingly soluble
same,water solubility,[2]; water,50 µg/mL
same,solubility in water,"[2]; water, in words",practically insoluble
